Measurements: US7259004B1, “Endophytic streptomycetes from higher plants with biological activity” (Montana State University, priority 2002, dated 2007)

Experiments:
[1] = system: Streptococcus pneumoniae 700674; test: microbroth dilution MIC
[2] = system: Candida glabrata ATCC 2001; test: disk diffusion assay; format: cell-based; details: 10 micrograms per disk; 35° C. Note: key: R = resistant.
[3] = system: Plasmodium falciparum strain CSC-1 (Honduras); test: antimalarial assay, 3H-phenylalanine radiobioassay in human red blood cells; details: human red blood cells, 3H-phenylalanine; standard deviation of the mean, three experiments
[4] = system: Listeria monocytogenes 19114; test: microbroth dilution MIC; format: cell-based
Vibrio fischeri PIC 345 = test: disk diffusion assay; format: cell-based; details: 10 micrograms per disk; ciprofloxacin 5, vancomycin 30 micrograms per disk; 35° C.
[5] = system: Enterococcus faecium ATCC 51559; test: disk diffusion assay; format: cell-based; details: 10 micrograms per disk; ciprofloxacin 5, vancomycin 30 micrograms per disk; 35° C.
Aspergillus fumigatus = test: microbroth dilution MIC
[6] = system: Saccharomyces cerevisiae ATCC 9763; test: disk diffusion assay; format: cell-based; details: 10 micrograms per disk; 35° C. Note: key: R = resistant.
[7] = system: Enterococcus faecalis ATCC 51299; test: disk diffusion assay; format: cell-based; details: 10 micrograms per disk; ciprofloxacin 5, vancomycin 30 micrograms per disk; 35° C.
Bacillus cereus 4342 = test: microbroth dilution MIC; format: cell-based
[8] = system: Streptococcus pneumoniae 49619; test: microbroth dilution MIC; format: cell-based
[9] = system: Enterococcus faecalis ATCC 29212; test: disk diffusion assay; format: cell-based; details: 10 micrograms per disk; ciprofloxacin 5, vancomycin 30 micrograms per disk; 35° C.
Candida krusei ATCC 6258 = test: disk diffusion assay; format: cell-based; details: 10 micrograms per disk; 35° C.
[10] = system: Candida parasilosis ATCC 22019; test: disk diffusion assay; format: cell-based, Candida parapsilosis; details: 10 micrograms per disk; 35° C. Note: key: R = resistant.
S. epidermis ATCC 12228 = test: disk diffusion assay; format: cell-based, Staphylococcus epidermidis; details: 10 micrograms per disk; 35° C.
[11] = system: Cryptococcus neoformans ATCC 32045; test: disk diffusion assay; format: cell-based; details: 10 micrograms per disk; 35° C.
[12] = system: Streptococcus pneumoniae ATCC 49619; test: disk diffusion assay; format: cell-based; details: 10 micrograms per disk; ciprofloxacin 5, vancomycin 30 micrograms per disk; MHA with 5% dsb. and 5% CO2
[13] = system: Escherichia coli ATCC 25922; test: disk diffusion assay; format: cell-based; details: 10 micrograms per disk; penicillin G 10 units per disk; 35° C. Note: key: R = resistant.
S. aureus 29213 = test: microbroth dilution MIC; format: cell-based, Staphylococcus aureus
[14] = system: Candida tropicalis ATCC 750; test: disk diffusion assay; format: cell-based; details: 10 micrograms per disk; 35° C. Note: key: R = resistant.
Bacillus subtilis = test: microbroth dilution MIC
[15] = system: Candida albicans ATCC 24433; test: disk diffusion assay; format: cell-based; details: 10 micrograms per disk; 35° C. Note: key: R = resistant.
[16] = system: S. maltophilia ATCC 13637; test: disk diffusion assay; format: cell-based, Stenotrophomas maltophilia; details: 10 micrograms per disk; 35° C.
B. subtilis 1A757 = test: microbe, parasite or virus in culture; format: cell-based, Bacillus subtilis
[17] = system: Enterococcus faecalis ATCC 51299 (VRE); test: microbroth dilution MIC; format: cell-based
[18] = system: Shigella dysenteriae ATCC 11835; test: disk diffusion assay; format: cell-based; details: 10 micrograms per disk; 35° C.
[19] = system: Enterococcus faecium ATCC 49624; test: disk diffusion assay; format: cell-based; details: 10 micrograms per disk; ciprofloxacin 5, vancomycin 30 micrograms per disk; 35° C.
brine shrimp = brine shrimp assays; details: preliminary assays
Pythium ultimum = test: microbroth dilution MIC, plant associated microorganisms; format: cell-based; details: PD broth, 48 hours at 23° C.
Procedure: (§1) Incubation was for 48 hours at 23° C. A plant pathogenic strain of Pseudomonas syringae was also tested using the same PD broth medium and with concentrations of colony forming units as given above. The organisms were obtained from the Montana State University plant pathogen culture collection administered by Dr. […] The relative activities against plant pathogenic fungi ranged from a few tenths of a microgram up to thirty micrograms. Table 2 provides the results of tests of inhibitory activity of the munumbicins against various plant-pathogenic fungi and one pathogenic bacterium. The data are reported as MIC values in micrograms/ml.

Sclerotinia sclerotiorum = test: as above; format: cell-based; details: PD broth, 48 hours at 23° C.
Procedure: as §1

Rhizoctonia solani = test: as above; format: cell-based; details: PD broth, 48 hours at 23° C.
Procedure: as §1

Phytophthora cinnamomi = test: as above; format: cell-based; details: PD broth, 48 hours at 23° C.
Procedure: as §1

Geotrichum candidum = test: as above; format: cell-based; details: PD broth, 48 hours at 23° C.
Procedure: as §1

Pseudomonas syringae = test: as above; format: cell-based; details: PD broth
Procedure: as §1

[20] = system: Staphylococccus aureus 27734; test: microbroth dilution MIC; format: cell-based, Staphylococcus aureus
[21] = system: Staphylococccus simulans 11631; test: microbroth dilution MIC; format: cell-based, Staphylococcus simulans
Bacillus anthracis K8902 = format: cell-based; details: 10 micrograms per disk; ciprofloxacin 5, vancomycin 30 micrograms per disk; 35° C.
[22] = system: Staphylococcus aureus ATCC 33591 (MRSA); test: microbroth dilution MIC; format: cell-based
E. faecium 49624 = test: microbroth dilution MIC; format: cell-based, Enterococcus faecium
S. aureus ATCC 6583P = test: MIC with and without double stranded DNA; format: cell-based, Staphylococcus aureus
[23] = system: Staphylococcus aureus ATCC 29213; test: disk diffusion assay; format: cell-based; details: 10 micrograms per disk; ciprofloxacin 5, vancomycin 30 micrograms per disk; 35° C.
[24] = DNA +, 20 micrograms per well of sheared salmon sperm DNA

Substance: munumbicin B
- MIC Streptococcus pneumoniae 700674 [1]: 0.5 micrograms/ml
- diameter of the zone of inhibition, Candida glabrata ATCC 2001 [2]: R
- IC50 Plasmodium falciparum [3]: 0.13 ± 0.07 µg/mL
- MIC Listeria monocytogenes 19114 [4]: 4 micrograms/ml
- diameter of the zone of inhibition, Vibrio fischeri PIC 345 (Vibrio fischeri PIC 345): 16 mm
- diameter of the zone of inhibition, Enterococcus faecium ATCC 51559 [5]: 26 mm
- MIC Aspergillus fumigatus (Aspergillus fumigatus): 20 micrograms/ml
- diameter of the zone of inhibition, Saccharomyces cerevisiae ATCC 9763 [6]: R
- diameter of the zone of inhibition, Enterococcus faecalis ATCC 51299 [7]: 23 mm
- MIC Bacillus cereus 4342 (Bacillus cereus 4342): 0.5 micrograms/ml
- MIC Streptococcus pneumoniae 49619 [8]: 0.5 micrograms/ml
- diameter of the zone of inhibition, Enterococcus faecalis ATCC 29212 [9]: 18 mm
- diameter of the zone of inhibition, Candida krusei ATCC 6258 (Candida krusei ATCC 6258): R
- diameter of the zone of inhibition, Candida parasilosis ATCC 22019 [10]: R
- diameter of the zone of inhibition, S. epidermis ATCC 12228 (S. epidermis ATCC 12228): 21 mm
- diameter of the zone of inhibition, Cryptococcus neoformans ATCC 32045 [11]: 12 mm
- diameter of the zone of inhibition, Streptococcus pneumoniae ATCC 49619 [12]: 17 mm
- diameter of the zone of inhibition, Escherichia coli ATCC 25922 [13]: R
- MIC S. aureus 29213 (S. aureus 29213): 0.5 micrograms/ml
- diameter of the zone of inhibition, Candida tropicalis ATCC 750 [14]: R
- MIC Bacillus subtilis (Bacillus subtilis; first listing in Table 4): 8 micrograms/ml
- MIC Bacillus subtilis (Bacillus subtilis; second listing in Table 4): 2 micrograms/ml
- diameter of the zone of inhibition, Candida albicans ATCC 24433 [15]: R
- diameter of the zone of inhibition, S. maltophilia ATCC 13637 [16]: 9 mm
- increase of MICs when DNA was added (B. subtilis 1A757; Bacillus subtilis and Staphylococcus aureus, 20 micrograms per well sheared salmon sperm DNA): affected
- MIC B. subtilis 1A757 (B. subtilis 1A757; [24]): >32 micrograms/ml
- 1×MIC against Bacillus subtilis (B. subtilis 1A757; concentration used in macromolecular synthesis assay): 2 micrograms/ml
- MIC Enterococcus faecalis ATCC 51299 ([17]; resistant to vancomycin, first listing in Table 4): 12.5 micrograms/ml
- MIC E. faecalis 51299 ([17]; second listing in Table 4): 8 micrograms/ml
- MIC E. faecalis VRE 51299 ([17]; third listing in Table 4): 0.5 micrograms/ml
- diameter of the zone of inhibition, Shigella dysenteriae ATCC 11835 [18]: R
- diameter of the zone of inhibition, Enterococcus faecium ATCC 49624 [19]: 21 mm
- LC50 brine shrimp (brine shrimp): 8.2 micrograms/ml
- MIC Pythium ultimum (Pythium ultimum): 0.2 micrograms/ml
- MIC Sclerotinia sclerotiorum (Sclerotinia sclerotiorum): 0.20 micrograms/ml
- MIC Rhizoctonia solani (Rhizoctonia solani): 8.0 micrograms/ml
- MIC Phytophthora cinnamomi (Phytophthora cinnamomi): 6.2 micrograms/ml
- MIC Geotrichum candidum (Geotrichum candidum): 31.2 micrograms/ml
- MIC Pseudomonas syringae (Pseudomonas syringae): 2.0 micrograms/ml
- MIC Staphylococccus aureus 27734 [20]: 0.5 micrograms/ml
- MIC Staphylococccus simulans 11631 [21]: 1 micrograms/ml
- diameter of the zone of inhibition, Bacillus anthracis K8902 (Bacillus anthracis K8902): 18 mm
- MIC Staphylococcus aureus ATCC 33591 ([22]; methicillin resistant strain, first listing in Table 4): 2.5 micrograms/ml
- MIC MRSA 33591 ([22]; second listing in Table 4): 0.5 micrograms/ml
- MIC E. faecium 49624 (E. faecium 49624): 0.5 micrograms/ml
- MIC S. aureus ATCC 6583P (S. aureus ATCC 6583P; [24]): >32 micrograms/ml
- MIC S. aureus ATCC 6583P (S. aureus ATCC 6583P; DNA −): 2 micrograms/ml
- diameter of the zone of inhibition, Staphylococcus aureus ATCC 29213 [23]: 15 mm
